Laboratory results published in PMC3641821 (2011).

Columns and labels:
[1] = tested on: D1, d[5'-G3G5C5C3-3'] (DNA, duplex) GGGGGGGGCCCCCCCC; assay: ITC; details: 100 mM KCl; 10 mM sodium cacodylate, 0.5 mM EDTA, pH 6.8, 25 °C
[2] = tested on: D4, d[5'-A3G5C5T3-3'] (DNA, duplex) AAAGGGGGCCCCCTTT; assay: ITC; details: 100 mM KCl; 10 mM sodium cacodylate, 0.5 mM EDTA, pH 6.8, 25 °C
[3] = tested on: D2, d[5'-G2A6T6C2-3'] (DNA, duplex) GGAAAAAATTTTTTCC; assay: ITC; details: 100 mM KCl; 10 mM sodium cacodylate, 0.5 mM EDTA, pH 6.8, 25 °C; site 1 of 2
[4] = tested on: D3, d[5'-G3A5T5C3-3'] (DNA, duplex) GGGAAAAATTTTTCCC; assay: ITC; details: 100 mM KCl; 10 mM sodium cacodylate, 0.5 mM EDTA, pH 6.8, 25 °C; site 1 of 2
[5] = tested on: D5, d[5'-A12-x-T12-3'] (intramolecular duplex) (DNA, hairpin, x = hexaethylene glycol linker between positions 12 and 13) AAAAAAAAAAAATTTTTTTTTTTT; assay: ITC; details: 100 mM KCl; 10 mM sodium cacodylate, 0.5 mM EDTA, pH 6.8, 25 °C; site 1 of 2
[6] = tested on: D6, d[5'-A30T30-3'] (DNA, duplex) AAAAAAAAAAAAAAAAAAAAAAAAAAAAAATTTTTTTTTTTTTTTTTTTTTTTTTTTTTT; assay: ITC; details: 100 mM KCl; 10 mM sodium cacodylate, 0.5 mM EDTA, pH 6.8, 25 °C; site 1 of 2
[7] = tested on: D8, d[5'-A2GAG2AGAGA2GAGAG2AGA2-3'] 22-mer duplex (DNA, duplex) AAGAGGAGAGAAGAGAGGAGAA/TTCTCCTCTCTTCTCTCCTCTT; assay: ITC; details: 100 mM KCl; 10 mM sodium cacodylate, 0.5 mM EDTA, pH 6.8, 25 °C; site 1 of 2
[8] = tested on: D9, d[5'-G3(AT)5C3-3'] (DNA, duplex) GGGATATATATATCCC; assay: ITC; details: 100 mM KCl; 10 mM sodium cacodylate, 0.5 mM EDTA, pH 6.8, 25 °C
[9] = tested on: D11, d[5'-(AT)8-3'] (DNA, duplex) ATATATATATATATAT; assay: ITC; details: 100 mM KCl; 10 mM sodium cacodylate, 0.5 mM EDTA, pH 6.8, 25 °C
[10] = tested on: poly(dA.dT)2 (DNA, polymer) AT; assay: UV melting; details: K+ 100 or 150 mM; Na+ 10 mM (cacodylate); rbd 10; per base

| K1 [1] | K1 [2] | K1 [3] | K1 [4] | K1 [5] | K1 [6] | K1 [7] | K1 [8] | K1 [9] | ΔTm [10] | SMILES |
| --- | --- | --- | --- | --- | --- | --- | --- | --- | --- | --- |
| 3.80 ± 0.18 × 10^5 M^-1 | 2.02 ± 0.20 × 10^5 M^-1 | – | – | – | – | – | – | – | – | NC[C@@H]1O[C@H](O[C@H]2[C@@H](O)[C@H](O[C@@H]3[C@@H](O)[C@H](N)C[C@H](N)[C@H]3O[C@H]3O[C@H](CN)[C@@H](O)[C@H](O)[C@H]3N)O[C@@H]2CO)[C@H](N)[C@@H](O)[C@@H]1O |
| 0.27 ± 0.02 × 10^7 M^-1 | 7.75 ± 1.70 × 10^5 M^-1 | 12.9 ± 3.4 × 10^7 M^-1 | 25.3 ± 10.0 × 10^7 M^-1 | 28.2 ± 12.0 × 10^7 M^-1 | 129.2 ± 54.1 × 10^7 M^-1 | 1.78 ± 1.00 × 10^7 M^-1 | 0.54 ± 0.15 × 10^7 M^-1 | 5.88 ± 2.90 × 10^7 M^-1 | ~ 11 °C | NC[C@@H]1O[C@H](O[C@H]2[C@@H](O)[C@H](O[C@@H]3[C@@H](O)[C@H](N)C[C@H](N)[C@H]3O[C@H]3O[C@H](CN)[C@@H](O)[C@H](O)[C@H]3N)O[C@@H]2CSCCNC(=S)NCCOCCOCCNC(=S)NCCSC[C@H]2O[C@@H](O[C@@H]3[C@@H](O)[C@H](N)C[C@H](N)[C@H]3O[C@H]3O[C@H](CN)[C@@H](O)[C@H](O)[C@H]3N)[C@H](O)[C@@H]2O[C@H]2O[C@@H](CN)[C@@H](O)[C@H](O)[C@H]2N)[C@H](N)[C@@H](O)[C@@H]1O |
